Key:
[1] = tested on: A2780/Dx multidrug-resistant human ovarian carcinoma cells; test: Cytotoxicity in combination with TRAIL, A2780/Dx; format: cell-based; details: 72 hours, value >1 synergism (FIG. 1)
Protocol: FIG. 1 is a graph showing the interaction between ST1926 and TRAIL in A2780/Dx multidrug-resistant human ovarian carcinoma cells at different concentrations of TRAIL.
A study of cytotoxicity of ST1926 in combination with TRAIL was performed in two different tumor cell lines such as M109 murine lung carcinoma and A2780/Dx multidrug-resistant human ovarian carcinoma. Cells were maintained in RPMI 1640 medium containing 10% FCS, 1% sodium pyruvate and 1% glutamine.
The cells were seeded in a volume of 250 μl in 96 well plates and incubated for 24 hours at 37° C. The following day, test compound ST 1926 [(2E)-3-[3′-(1-Adamantyl)-4′-hydroxy[1,1′-biphenyl]-4-yl]-2-propenoate/ic acid] or TRAIL were added at increasing concentrations, and the cells were incubated for a further 72 hours at 37° C. in a humidified atmosphere containing 5% CO2. On the 5th day, the supernatant was removed by upturning the plates. 200 μl of PBS and 50 μl of cold, 80% TCA were added. The plates were then left to incubate on ice for at least 1 hour. The TCA was removed by upturning; the plates were washed three times by immersion in distilled water and dried first on paper, then with a jet of hot air. […] The optical density was measured using a Multiskan spectrophotometer at 540 nm.
The interaction between ST1926 and TRAIL was determined by using the analysis of Drewinko et al. (Cancer Biochem. Biophys. 1: 187-195, 1976). […]

[2] = tested on: Human Promyelocytic Leukaemia NB4 Cells; test: Cyto-fluorometric cell cycle analysis, NB4; format: cell-based; details: 3 days; for G0/G1 / G2 + M / S: percentage of cell cycle phase
Protocol: To evaluate the effect of the compound according to the invention, on various phases of the cell cycle, cyto-fluorometric cell cycle analyses were performed.
HL60 or NB4 cells were seeded onto plates at a density of 150.000 cells/ml in RPMI 1640 medium containing 10% FCS, the test compound (ST 1926) was added, solubilised in 0.1% DMSO at concentrations of between 0.01 and 0.1 μM, in the presence or absence of sub-optimal doses of ATRA (5-10 nM for NB4 and 0.5 μM for HL60) in the dark and placed in an incubator for 3 days without changing the culture medium.
On the third day of treatment 500.000 cells were sampled, centrifuged at 180×g for 5 minutes, washed twice in calcium and magnesium free PBS. The cells (1×10^6/ml of fixative) were fixed for at least 1 hour in a fixation mixture comprised of acetone/methanol 1:4 v/v maintained at −20° C. and 50% of calcium and magnesium free PBS; then the cells were centrifuged, washed in calcium and magnesium free PBS, and again centrifuged and washed. The cellular precipitate was incubated for 30 minutes in the dark at room temperature with 200 μl of […] (100 μg/ml) and 200 μl of RNAse (150 KU/mg).
The samples with filtered through nylon filters (60-80 μm diameter) and analysed by cyto-fluorimeter FACScan (Becton Dickinson), acquiring 20000 events/sample, at an excitation wavelength of 488 nm and emission wavelength of 620 nm. The analysis of the percentages of the cell cycle phases was performed using a dedicated software package, Modfit v. 2.0 (Becton Dickinson).

Compound: O=C(O)/C=C/c1ccc(-c2ccc(O)c(C34CC5CC(CC(C5)C3)C4)c2)cc1 [ST1926, E-4-(3-(1-adamantyl)-4-hydroxyphenyl)cinnamic acid]
- interaction between ST1926 and TRAIL (analysis of Drewinko et al.) [1]: synergic activity
- APOPTOSIS ([2]; NB4, 0.01 μM): 19.9
- G0/G1 ([2]; NB4, 0.01 μM): 48.4
- G2 + M ([2]; NB4, 0.01 μM): 12.8
- S ([2]; NB4, 0.01 μM): 38.8
- APOPTOSIS ([2]; NB4, 0.02 μM): 28.4
- G0/G1 ([2]; NB4, 0.02 μM): 48.2
- G2 + M ([2]; NB4, 0.02 μM): 12.4
- S ([2]; NB4, 0.02 μM): 39.4
- APOPTOSIS ([2]; NB4, 0.04 μM): 33.9
- G0/G1 ([2]; NB4, 0.04 μM): 51.3
- G2 + M ([2]; NB4, 0.04 μM): 13.0
- S ([2]; NB4, 0.04 μM): 35.7
- APOPTOSIS ([2]; NB4, 0.08 μM): 45.0
- G0/G1 ([2]; NB4, 0.08 μM): 41.4
- G2 + M ([2]; NB4, 0.08 μM): 5.0
- S ([2]; NB4, 0.08 μM): 53.6
- APOPTOSIS ([2]; NB4, 0.1 μM): 53.6
- G0/G1 ([2]; NB4, 0.1 μM): 50.6
- G2 + M ([2]; NB4, 0.1 μM): 3.3
- S ([2]; NB4, 0.1 μM): 46.1
- effect on the cell cycle of NB4 (in words) ([2]; NB4, 0.08 and 0.1 μM): induces growth arrest in the duplication S phase of the cycle and apoptosis
